Measurements as given in patent publication US20050152911A1, “Norovirus monoclonal antibodies and peptides” (priority 2003, published 2005).
Ends that are not written are not given here.

How the values were obtained:
[1] = test system: rNV binding to CaCo-2 cells; conditions: serial dilutions of peptide, free and linked to carrier; Example 4 written in present tense
[2] = test system: rSMV binding to CaCo-2 cells; conditions: serial dilutions of peptide, free and linked to carrier; Example 4 written in present tense

Sequence | reduction of binding of rNV to CaCo-2 cells [1] | reduction of binding of rSMV to CaCo-2 cells [2]
WTRGGHGL [compound 1731, WTRGGHGL] | reduce the binding | –
WTRGQHQL [compound 1732, WTRGQHQL] | reduce the binding | –
WTRGSHNL [peptide 1730, WTRGSHNL] | reduce the binding | –
WLPAPIDKL [peptide 1800, WLPAPIDKL] | – | reduces binding
